Data from patent US9260468B1, “2,3′-anhydro-2′-deoxy-5-fluorouridine derivatives with cytotoxic activity, a manufacturing process and application” (ADAM MICKIEWICZ UNIVERSITY, priority 2014, dated 2016).
Several values for one entry are separate records, joined by “and”; a condition that tells them apart may be missing. Equal entries are not always repeated. Where two headings read alike, the source gives them in different places.

Columns and labels:
[1] = system: MCF-7 (breast cancer); assay: Cytotoxicity test with sulphorhodamine B, MCF-7 line; format: cell-based; details: for SI, MCF-7: SI = IC50 normal cell line (fibroblasts) / IC50 MCF-7
Protocol: (§1) Cytotoxic activity tests were performed using the following cancer cell lines: MCF-7 (breast cancer), HeLa (cervical cancer) A549 (lung cancer) and KB (nasopharynx cancer) and normal cells (human dermal fibroblasts, HDF) obtained from ECACC (European Collection of Cell Cultures).
(§2) Cytotoxicity tests were carried out using a standard procedure with sulphorhodamine B. They involved incubation of the cancer cell lines in the logarithmic growth phase for 72 hours with the compound tested and, subsequently, spectrophotometric determination of the degree of cell growth inhibition using adsorption of a dye (sulphorhodamine B) which binds cellular proteins. The determination was carried out according to a procedure reported in: Vichai, V., Kirtikara, K. Nature Protocols, 2006, 1, 1112.
(§3) Cells of the cell line tested in the logarithmic growth phase were seeded onto 24-well plates in a quantity of 20.000 cells/2 mL of the growth medium per well and, subsequently, incubated in an incubator at 37° C., in the 5% CO2 atmosphere for 24 hours.
(§4) Solutions of the test compounds were prepared in DMSO in the following concentrations: 0.05; 0.1; 0.5; 1; 5; 10; 50; 100; 500 μM.
(§5) The cells of the lines tested were treated with the solutions of the test compounds in a laminar-flow chamber which ensured sterile working conditions according to the following procedure: the first three wells were used as a control: they contained 20 μL of DMSO only; successive solutions of the test compound were added to subsequent wells (20 μL), starting with the lowest concentration (three wells for each concentration level). Subsequently, the plates were placed in an incubator at 37° C. for 72 hours. After the end of incubation, the adhered cells were fixed by adding 500 μL of cold (4° C.) 50% trichloroacetic acid (TCA) and incubated at 4° C. for 1 hour. Subsequently, each well was rinsed with sterile water and dried. The rinsing was repeated five times. The fixed cells were stained for 30 minutes by adding 500 μL of 0.4% dye solution (sulphorhodamine B) dissolved in 1% acetic acid. Any unbound dye was removed by decanting it from the plate, and the cells were washed 4 times with 1% acetic acid. Subsequently, the plates were dried in air for approx. 5 minutes. Bounded dye was dissolved by adding 1500 μL of 10 mM Tris-base buffer (trishydroxymethylaminomethane) to each well and shaken using an orbital shaker for 5 minutes. Subsequently, 200 μL of solution from each well was transferred to each of two wells on a new 96-well plate and absorption of the solutions was determined spectrophotometrically at a wavelength of 490-530 nm using a plate reader.
(§6) Cytotoxicity tests for the other compounds and cell lines were performed following an identical procedure.
(§7) The MCF-7 line was grown in Dulbecco's Modified Eagle's Medium (DME) from Sigma (cat. no. D5796), while the HeLa, A549 and KB lines were grown in RPMI-1640 Medium from Sigma (cat. no. R8758).
(§8) IC50 values, being concentration of a compound needed to obtain 50% inhibition of cell growth, were determined for all the derivatives tested.

[2] = system: HeLa (cervical cancer); assay: Cytotoxicity test with sulphorhodamine B, HeLa line; format: cell-based; details: for SI, HeLa: SI = IC50 normal cell line (fibroblasts) / IC50 HeLa
Protocol: as §1, §2, §3, §4, §5, §6, §7, §8

[3] = system: A549 (lung cancer); assay: Cytotoxicity test with sulphorhodamine B, A549 line; format: cell-based; details: for IC50: Homo sapiens
Protocol: as §1, §2, §3, §4, §5, §6, §7, §8

[4] = system: KB (nasopharynx cancer); assay: Cytotoxicity test with sulphorhodamine B, KB line; format: cell-based; details: for SI, KB: SI = IC50 normal cell line (fibroblasts) / IC50 KB
Protocol: as §1, §2, §3, §4, §5, §6, §7, §8

[5] = Cytotoxicity test with sulphorhodamine B, normal fibroblasts; format: cell-based; details: human, normal human dermal fibroblasts (HDF), normal cells, 72 hours incubation, read-out: Cytotoxic activity, IC50, Fibroblasts (HDF)
Protocol: as §1, §2, §3
Solutions of the test compounds were prepared in DMSO in the following concentrations: 0.05; 0.1; 0.5; 1; 5; 10; 50; 100; 500 μM. […]

[6] = system: HBV; details: literature (Srivastav et al. 2010); cited from earlier work
[7] = system: Huh-7 line; details: literature (Srivastav et al. 2010); cited from earlier work
[8] = Homo sapiens, MCF7, 72 h, read-out: Cytotoxic activity, IC50, MCF-7 (breast cancer)
[9] = Homo sapiens, MCF7, read-out: Cytotoxic activity class, MCF-7 (breast cancer)
[10] = Homo sapiens, HeLa, 72 h, read-out: Cytotoxic activity, IC50, HeLa (cervical cancer)
[11] = Homo sapiens, HeLa, read-out: Cytotoxic activity class, HeLa (cervical cancer)
[12] = 72 h, read-out: Cytotoxic activity, IC50, KB (nasopharynx cancer)
[13] = read-out: Cytotoxic activity class, KB (nasopharynx cancer)
[14] = Homo sapiens, MCF7, class A/MA/NA by IC50 in μg/mL, read-out: Cytotoxic activity class, MCF-7 (breast cancer)
[15] = Homo sapiens, HeLa, class A/MA/NA by IC50 in μg/mL, read-out: Cytotoxic activity class, HeLa (cervical cancer)
[16] = A549, class A/MA/NA by IC50 in μg/mL, read-out: Cytotoxic activity class, A549 (lung cancer)
[17] = class A/MA/NA by IC50 in μg/mL, read-out: Cytotoxic activity class, KB (nasopharynx cancer)
[18] = 72 hours incubation, sulphorhodamine B, average of three determinations

Row | Compound | IC50 [1, 8] | IC50 [1, 9] | SI, MCF-7 [1] | IC50 [2, 10] | IC50 [2, 11] | SI, HeLa [2] | IC50 [4, 12] | SI, KB [4] | IC50 [4, 13] | IC50 at 72 h [5] | IC50 [1, 14] | IC50 [2, 15] | IC50 [3, 16] | IC50 [4, 17] | further results
1 | O=c1nc2n(cc1F)C1CC(O2)C(COP(=O)(NCC(F)(F)F)Oc2ccc(Cl)cc2)O1 (centres unmarked) [FEAdFU, 2,3′-anhydro-2′-deoxy-5-fluorouridine 5′-[N-(2,2,2-trifluoroethyl)-O-(4-chlorophenyl)]phosphate] | 240 nM and 0.12 µg/mL | < 4 mg/L | 50 | 360 nM and 0.18 µg/mL | < 4 mg/L | 33 and 33.3 | 400 nM and 0.2 µg/mL | 30 | < 4 mg/L | 6 µg/mL and 12 µM |  |  |  |  | fold higher activity than 5FU, MCF-7 ([1]; versus 5FU): more than 75 fold; fold higher activity than 5FdU, MCF-7 ([1]; versus 5FdU): more than 47 fold; fold higher activity than AdFU, MCF-7 ([1]; versus AdFU): 67 fold; fold higher cytotoxicity than 5FU, HeLa ([2]; versus 5FU): more than 58 fold; fold higher cytotoxicity than 5FdU, HeLa ([2]; versus 5FdU): more than 36 fold; fold higher cytotoxicity than AdFU, HeLa ([2]; versus AdFU): more than 133 fold; IC50 ([3]; A549, 72 h, read-out: Cytotoxic activity, IC50, A549 (lung cancer)): 400 nM and 0.2 µg/mL; IC50 ([3]; A549, read-out: Cytotoxic activity class, A549 (lung cancer)): < 4 mg/L; SI, A549 ([3]; SI = IC50 normal cell line (fibroblasts) / IC50 A549): 30; fold higher cytotoxicity than 5FU, A549 ([3]; versus 5FU): more than 53 fold; fold higher cytotoxicity than 5FdU, A549 ([3]; versus 5FdU): more than 33 fold; fold higher cytotoxicity than 5FU, KB ([4]; versus 5FU): more than 55 fold; fold higher cytotoxicity than 5FdU, KB ([4]; versus 5FdU): more than 34 fold; fold higher cytotoxicity than AdFU, KB ([4]; versus AdFU): 120 fold
2 | O=c1nc2n(cc1F)C1CC(O2)C(COP(=O)(NCCF)Oc2ccc(Cl)cc2)O1 (centres unmarked) [MFEAdFU] | 11.8 µg/mL and 25.4 µM | 4 to 30 mg/L | 3.7 | 16 µg/mL and 34.5 µM | 4 to 30 mg/L | 2.7 | 12.2 µg/mL and 26.3 µM | 3.5 | 4 to 30 mg/L | 43.1 µg/mL and 92.9 µM |  |  |  |  | 
3 | O=c1[nH]cc(F)c(=O)[nH]1 [5-fluorouracil, reference compound] |  |  |  |  |  |  |  |  |  |  | < 4 mg/L | < 4 mg/L | < 4 mg/L | < 4 mg/L | 
4 | O=c1nc2n(cc1F)[C@H]1C[C@@H](O2)[C@@H](CO)O1 [2,3′-anhydro-2′-deoxy-5-fluorouridine] |  |  |  |  |  |  |  |  |  |  |  |  |  | 4 to 30 mg/L | Cytotoxic activity, IC50, MCF-7 (breast cancer) [1, 18]: 3.7 mg/L; IC50 ([1]; 72 hours incubation, sulphorhodamine B, read-out: Cytotoxic activity, IC50, MCF-7 (breast cancer)): 16.2 µM; Cytotoxic activity class, MCF-7 (breast cancer) ([1]; class A/MA/NA by IC50 in μg/mL): A (IC50<4 μg/mL are generally assumed as active); Cytotoxic activity, IC50, HeLa (cervical cancer) [2, 18]: 11.0 mg/L; IC50 ([2]; 72 hours incubation, sulphorhodamine B, read-out: Cytotoxic activity, IC50, HeLa (cervical cancer)): 48.2 µM; Cytotoxic activity class, HeLa (cervical cancer) ([2]; class A/MA/NA by IC50 in μg/mL): MA (IC50 range of 4-30 μg/mL are considered medium active); Cytotoxic activity, IC50, KB (nasopharynx cancer) [4, 18]: 11.0 mg/L; IC50 ([4]; 72 hours incubation, sulphorhodamine B, read-out: Cytotoxic activity, IC50, KB (nasopharynx cancer)): 48.2 µM; antiviral activity against HBV [6]: weak antiviral activity; cytotoxic activity against the Huh-7 line, IC50 [7]: > 200 mg/L
5 | O=c1[nH]c(=O)n([C@H]2C[C@H](O)[C@@H](CO)O2)cc1F [5-fluoro-2′-deoxyuridine, reference compound] |  |  |  |  |  |  |  |  |  |  | < 4 mg/L | < 4 mg/L | < 4 mg/L | < 4 mg/L | 
